The source of these data is patent publication US9309275B2, “3′-deoxy nucleosides for the treatment of HCV” (Idenix Pharmaceuticals, Inc., priority 2013, dated 2016).

Molecules are shown by their SMILES. Like-named read-outs stand apart in the source and are kept apart here.

Series [1] deals with HCV genotype 1b replicon. Briefly: HCV replicon assay (Zluc luciferase reporter). Type of series: cell-based. As to the method:
Huh-7-derived cell line (Zluc) that harbors an HCV genotype 1b replicon and a luciferase reporter gene was grown in Dulbecco's Modified Eagle Medium (DMEM) supplemented with 10% fetal bovine serum, 2 mM GlutaMAX, 1% MEM nonessential amino acids, 100 IU/mL penicillin, 100 μg/mL streptomycin, and 0.5 mg/mL Geneticin® (G418). For dose response testing the cells were seeded in 96-well plates at 7.5×10^3 cells per well in a volume of 50 μL, and incubated at 37° C./5% CO2. Drug solutions were made up freshly in Huh-7 media as 2× stocks. Ten additional 5-fold dilutions were prepared from these stocks in DMEM without G418. At least three hours after Zluc cells were seeded, drug treatment was initiated by adding 50 μL of drug dilutions to the plates in duplicate. Final concentrations of drug ranged from 100 μM to […]. Cells were then incubated at 37° C./5% CO2. Alternatively, compounds were tested at two concentrations (1 μM and 10 μM). […] For this, media was removed from the plates via gentle tapping. Fifty microliters of ONE-glo luciferase assay reagent was added to each well. The plates were shaken gently for 3 min at room temperature and luminescence was measured on a Victor^3 V 1420 multilabel counter (Perkin Elmer) with a 1 second read time using a 700 nm cut-off filter. The EC50 values were calculated from dose response curves from the resulting best-fit equations determined by Microsoft Excel and XLfit 4.1 software. When screening at two fixed concentrations, the results were expressed as % inhibition at 1 μM and 10 μM.

The nature of series [2]: Cytotoxicity evaluation, CellTiter-Blue Cell Viability Assay. The class given is cell-based. The note with it: human. As to the method: (§1) For cytotoxicity evaluation, Zluc cells were treated with test compound as described herein, and cell viability was monitored using the CellTiter-Blue Cell Viability Assay (Promega) by adding 20 μL of the assay solution to each well. The plates were then incubated at 37° C./5% CO2 for at least 3 hours.

Series [3] has as its target T1, wild-type HCV genotype 1b NS5B protein (Hepatitis C virus genotype 1b, UniProt Q9WMX2).
T1 construct: HCV genotype 1b NS5B protein were used to generate recombinant HCV polymerases (with a deletion of the 21 carboxy terminal amino acids); made in house
Briefly: HCV polymerase enzyme assay, wild-type. The class given is biochemical. The source says:
(§2) Test compounds in the form of nucleoside triphosphates were examined for inhibitory activity against purified HCV polymerase in a standard assay. Bacterial expression constructs encoding the approximately 65 kDa HCV genotype 1b NS5B protein were used to generate recombinant HCV polymerases (with a deletion of the 21 carboxy terminal amino acids). Both the wild-type genotype 1b protein and protein containing the S282T mutation were expressed and purified for use in the enzymatic activity assay.
(§3) The enzymatic activity assay measured the inhibitory effect of increasing concentrations of test compound on the incorporation of α-[^33P]-labeled nucleotide into trichloroacetic acid-precipitable material. Recombinant polymerase and synthetic RNA template were combined in reaction buffer containing ribonucleoside triphosphates, α-[^33P]-labeled nucleotide and eight concentrations of test compound in three-fold dilutions. […]
(§4) Reactions were terminated by the addition of ice-cold trichloroacetic acid and sodium pyrophosphate to promote precipitation of newly-synthesized ribonucleic acid. Precipitable material from the reactions was collected by filtration onto 96-well filter plates, washed extensively with water, and quantified by liquid scintillation.
(§5) The inhibitory activity of test compounds was determined by fitting results to dose-response curves using XLfit software.

In series [4] the target is T2, HCV genotype 1b NS5B protein containing the S282T mutation (Hepatitis C virus genotype 1b, UniProt Q9WMX2, S2701T).
T2 construct: HCV genotype 1b NS5B protein were used to generate recombinant HCV polymerases (with a deletion of the 21 carboxy terminal amino acids); made in house
Briefly: HCV polymerase enzyme assay, S282T mutant. As to conditions: purified recombinant genotype 1b NS5B with S282T mutation; compounds tested as nucleoside triphosphates. Type of series: biochemical.
Text: as §2, §3, §4, §5

The test system of series [5] is Zluc cells. Description: Cytotoxicity evaluation, CellTiter-Blue Cell Viability Assay. Type of series: cell-based. As to conditions: read-out: HCV Replicon CC50. As to the method:
as §1

Setting [6] is: Hepatitis C virus, 72 h, Huh-7-derived Zluc cells, 72 hours of incubation, read-out: HCV Replicon EC50.
Setting [7] is: Zluc cells, read-out: HCV Replicon CC50.
[8] abbreviates: Zluc cells (HCV replicon cells).
The mark [9] stands for this setting: Huh-7-derived Zluc cells, 72 hours of incubation, read-out: HCV Replicon EC50.
The mark [10] stands for this setting: read-out: HCV Replicon EC50, Huh-7-derived Zluc cells, 72 hours of incubation.

In the case of `CC(C)OC(=O)[C@H](C)NP(=O)(OC[C@@H]1C[C@@](C)(F)[C@H](n2ccc(N)nc2=O)O1)Oc1ccccc1` (single isomer, unassigned) [3b Diastereomer 1], in series [1] (setting [6]), the EC50 is greater than 10 µM. Besides, in series [2] (setting [7]), the CC50 at 72 h is greater than 50 µM.
Take `CCOc1nc(N)nc2c1ncn2[C@@H]1O[C@H](COP(=O)(N[C@H](C)C(=O)OC(C)C)Oc2ccccc2)C[C@@]1(C)F` (single isomer, unassigned) [2a Diastereomer 1]: the concentration giving a half-maximal response (EC50) in series [1] (setting [6]) was greater than 10 µM. Besides, in series [2] (setting [7]), the 50% cytotoxic concentration (CC50) at 72 h is greater than 50 µM.
`C[C@@]1(F)C[C@@H](CO)O[C@H]1n1cnc2c(=O)[nH]c(N)nc21` [Compound 201]: in series [1] (setting [6]), the EC50 was greater than 10 µM. Further, in series [2] (setting [8]), the half-maximal cytotoxic concentration (CC50) at 72 h was greater than 50 µM.
As for `C[C@@]1(F)C[C@@H](COP(=O)(O)OP(=O)(O)OP(=O)(O)O)O[C@H]1n1cnc2c(=O)[nH]c(N)nc21` [Compound 101], the IC50 in series [3] is less than 0.25 µM; in series [4] it was 1 to 10 µM.
As for `C[C@@]1(F)C[C@@H](CO)O[C@H]1n1ccc(=O)[nH]c1=O` [Compound 202], in series [1] (setting [6]), the EC50 was greater than 10 µM. In series [2] (setting [8]), the 50% cytotoxic concentration (CC50) at 72 h was greater than 50 µM.
With `CCOc1nc(N)nc2c1ncn2[C@@H]1O[C@H](COP(=O)(N[C@@H](C)C(=O)OC(C)C)Oc2ccccc2)C[C@@]1(C)F` (single isomer, unassigned) [2b Diastereomer 1], the EC50 in series [1] (setting [9]) was greater than 10 µM. The CC50 at 72 h in series [2] (setting [7]) is greater than 50 µM.
As to `CC(C)OC(=O)[C@H](C)NP(=O)(OC[C@@H]1C[C@@](C)(F)[C@H](n2ccc(=O)[nH]c2=O)O1)Oc1ccccc1` (single isomer, unassigned) [4b Diastereomer 1], the concentration for a half-maximal effect (EC50) in series [1] (setting [9]) lay in the range of 0.25 to 1 µM. The CC50 at 72 h in series [2] (setting [7]) is greater than 50 µM.
On to `CC(C)OC(=O)[C@H](C)NP(=O)(OC[C@@H]1C[C@@](C)(F)[C@H](n2cnc3c(=O)[nH]c(N)nc32)O1)Oc1ccccc1` (single isomer, unassigned) [1b Diastereomer 1], for which the EC50 in series [1] (setting [10]) was in the range of 1 to 10 µM. The half-maximal cytotoxic concentration (CC50) at 72 h in series [2] (setting [7]) was greater than 50 µM.
With `CC(C)OC(=O)[C@H](C)NP(=O)(OC[C@@H]1C[C@@](C)(F)[C@H](n2ccc(=O)[nH]c2=O)O1)Oc1ccccc1` (single isomer, unassigned) [4b Diastereomer 2], the concentration giving a half-maximal response (EC50) in series [1] (setting [9]) lay within 1 to 10 µM. Besides, the cytotoxic concentration (CC50) in series [5] was greater than 50 µM.
Regarding `CC(C)OC(=O)[C@H](C)NP(=O)(OC[C@@H]1C[C@@](C)(F)[C@H](n2cnc3c(=O)[nH]c(N)nc32)O1)Oc1ccccc1` (single isomer, unassigned) [lb Diastereomer 2], the EC50 in series [1] (setting [10]) was greater than 10 µM. In addition, the 50% cytotoxic concentration (CC50) in series [5] was greater than 50 µM.
Turning to `C[C@@]1(F)C[C@@H](COP(=O)(O)OP(=O)(O)OP(=O)(O)O)O[C@H]1n1ccc(=O)[nH]c1=O` [Compound 102], the IC50 in series [3] was 1 to 10 µM; in series [4], greater than 10 µM.
Take `CCOc1nc(N)nc2c1ncn2[C@@H]1O[C@H](COP(=O)(N[C@@H](C)C(=O)OC(C)C)Oc2ccccc2)C[C@@]1(C)F` (single isomer, unassigned) [2b Diastereomer 2]: the EC50 in series [1] (setting [9]) lay within 1 to 10 µM. Besides, in series [5], the half-maximal cytotoxic concentration (CC50) was greater than 50 µM.
